From paper PMC3706088 (Journal of medicinal chemistry, 2013)
“Also recorded” adds a separate entry of the source. Where two headings read alike, the source gives them in different places.

Experiments:
[1] = target: T1, rCB1 (Rattus norvegicus, UniProt P20272); assay: Radioligand competition binding with [3H]CP-55,940, rat brain membranes; settings: relative to 11; across rCB1, mCB2 and hCB2
[2] = target: CB1-E cannabinoid receptors (Homo sapiens, UniProt P21554); assay: β-arrestin2 translocation assay, U2OS cells expressing CB1-E and β-arrestin2-GFP; settings: for in vitro functional characterization, CB1 profile: conclusion of the in vitro functional assays; for β-arrestin2 translocation efficacy, 95% confidence interval: normalized to the response of WIN55212-2 set to 1, N = 3
Chain of CB1-E cannabinoid receptors (P21554 1-415): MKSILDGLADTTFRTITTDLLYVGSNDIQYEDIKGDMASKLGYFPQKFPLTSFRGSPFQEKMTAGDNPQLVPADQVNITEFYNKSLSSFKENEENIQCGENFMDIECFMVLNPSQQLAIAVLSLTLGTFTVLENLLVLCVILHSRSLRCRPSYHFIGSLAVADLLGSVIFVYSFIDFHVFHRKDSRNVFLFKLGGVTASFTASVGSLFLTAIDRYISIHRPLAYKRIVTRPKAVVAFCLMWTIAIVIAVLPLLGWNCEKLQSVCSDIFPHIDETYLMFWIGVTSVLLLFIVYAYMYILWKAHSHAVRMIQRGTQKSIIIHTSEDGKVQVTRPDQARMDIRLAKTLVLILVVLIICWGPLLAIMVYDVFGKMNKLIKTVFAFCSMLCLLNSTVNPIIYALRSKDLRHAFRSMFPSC
Chain of CB1-E cannabinoid receptors (P25103 309-407 partner): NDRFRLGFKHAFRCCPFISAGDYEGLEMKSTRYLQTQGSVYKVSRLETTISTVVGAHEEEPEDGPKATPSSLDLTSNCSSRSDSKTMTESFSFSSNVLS

[3] = target: T1, rCB1; type: cell-based; settings: for functional profile in cAMP assay: CB1
[4] = target: mCB2 (Mus musculus, UniProt P47936); assay: Radioligand competition binding with [3H]CP-55,940, mouse spleen membranes; settings: from Ki values
Chain of mCB2 (P47936 whole entry): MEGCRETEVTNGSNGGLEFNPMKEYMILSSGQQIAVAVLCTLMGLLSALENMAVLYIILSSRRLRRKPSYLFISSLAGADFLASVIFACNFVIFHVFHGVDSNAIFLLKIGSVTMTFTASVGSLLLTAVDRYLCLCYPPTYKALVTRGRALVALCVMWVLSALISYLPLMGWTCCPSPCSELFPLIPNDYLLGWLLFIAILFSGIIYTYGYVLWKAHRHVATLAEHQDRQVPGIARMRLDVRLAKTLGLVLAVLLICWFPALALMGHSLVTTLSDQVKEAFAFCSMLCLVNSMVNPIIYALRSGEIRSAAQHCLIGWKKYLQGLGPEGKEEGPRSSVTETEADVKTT

[5] = test system: Female Sprague-Dawley rats; assay: Antinociception: tail-flick procedure in rats over 6 h after injection; settings: rat, up to doses of 10.0 mg/kg s.c.
[6] = test system: Female Sprague-Dawley rats; assay: Hypothermia: body temperature in rats over 6 h after injection; settings: rat, up to a dose of 10.0 mg/kg s.c.
[7] = target: hCB2 (Homo sapiens, UniProt P34972); type: binding; settings: from Ki values
Chain of hCB2 (P34972 whole entry): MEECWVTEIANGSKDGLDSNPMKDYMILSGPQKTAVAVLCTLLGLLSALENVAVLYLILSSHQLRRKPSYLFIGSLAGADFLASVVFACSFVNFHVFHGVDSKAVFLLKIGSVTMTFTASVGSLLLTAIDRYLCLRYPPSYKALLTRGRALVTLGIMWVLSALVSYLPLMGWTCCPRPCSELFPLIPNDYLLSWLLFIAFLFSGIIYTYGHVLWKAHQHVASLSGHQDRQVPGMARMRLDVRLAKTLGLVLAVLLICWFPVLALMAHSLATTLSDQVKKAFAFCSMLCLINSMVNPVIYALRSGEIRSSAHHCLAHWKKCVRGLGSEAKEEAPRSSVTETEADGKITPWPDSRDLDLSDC

T1 sequence (P20272 whole entry): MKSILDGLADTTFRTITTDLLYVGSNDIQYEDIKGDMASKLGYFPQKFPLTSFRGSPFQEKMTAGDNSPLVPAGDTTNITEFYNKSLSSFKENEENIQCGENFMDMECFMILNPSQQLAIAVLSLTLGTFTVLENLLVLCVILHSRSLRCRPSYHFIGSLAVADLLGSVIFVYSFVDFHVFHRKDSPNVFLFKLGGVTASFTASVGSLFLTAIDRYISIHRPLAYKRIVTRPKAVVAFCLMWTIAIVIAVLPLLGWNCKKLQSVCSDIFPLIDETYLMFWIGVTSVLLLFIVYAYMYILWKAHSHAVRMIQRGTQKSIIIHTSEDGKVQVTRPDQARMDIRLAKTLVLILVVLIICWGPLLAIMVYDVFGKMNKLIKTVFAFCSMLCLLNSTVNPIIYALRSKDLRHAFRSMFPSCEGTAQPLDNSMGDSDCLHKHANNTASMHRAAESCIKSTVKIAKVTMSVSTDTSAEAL

Structure (SMILES) | in vitro functional characterization, CB1 profile [2] | β-arrestin2 translocation efficacy, 95% confidence interval [2] | EC50 [3] | functional profile in cAMP assay [3] | CB1 selectivity over mCB2 [4] | antinociceptive effects (tail-flick) [5] | further results
CC1(C)Oc2cc(C34CC5CC(CC(C5)C3)C4)cc(O)c2[C@@H]2C[C@@H](CO)CC[C@H]21 [Compound 17, (6aR,9S,10aR)-3-(Adamantan-1-yl)-9-(hydroxymethyl)-6,6-dimethyl-6a,7,8,9,10,10a-hexahydro-6H-benzo[c]chromen-1-ol] |  |  |  |  |  |  | lower affinities than β-hydroxymethyl isomer 11 [1]: 6- to 11 fold
CC1(C)Oc2cc(C34CC5CC(CC(C5)C3)C4)cc(O)c2[C@@H]2C[C@H](CO)CC[C@H]21 [Compound 11, (6aR,9R,10aR)-3-(Adamantan-1-yl)-9-(hydroxymethyl)-6,6-dimethyl-6a,7,8,9,10,10a-hexahydro-6H-benzo[c]chromen-1-ol] | high efficacy CB1 agonists | 0.65–0.92 | 1.29 nM | potent CB1 agonist |  |  | functional profile in cAMP assay ([3]; listed as AM4054): agonist
CC1(C)Oc2cc(C34CC5CC(CC(C5)C3)C4)cc(O)c2-c2cc(CO)ccc21 [Compound 24] |  | 0.68–0.94 | 7.97 nM | CB1 partial agonist; also recorded: partial CB1 agonist | 15 fold | neither had significant antinociceptive effects | functional profile in cAMP assay ([3]; listed as AM4089): partial agonist
CC1=CC[C@@H]2[C@@H](C1)c1c(O)cc(C34CC5CC(CC(C5)C3)C4)cc1OC2(C)C [Compound 1] |  | 0.43–0.81 |  |  |  | neither had significant antinociceptive effects | hypothermic effects [6]: did not have hypothermic effects
CC1(C)Oc2cc(C34CC5CC(CC(C5)C3)C4)cc(O)c2[C@@H]2CC(CO)=CC[C@H]21 [Compound 22, (6aR,10aR)-3-(Adamantan-1-yl)-9-(hydroxymethyl)-6,6-dimethyl-6a, 7, 10, 10a-tetrahydro-6H-benzo[c]chromen-1-ol] | high efficacy CB1 agonists | 0.54–0.80 |  |  |  |  | 
CC1(C)Oc2cc(C34CC5CC(CC(C5)C3)C4)cc(O)c2[C@@H]2C[C@H](CCO)CC[C@H]21 [Compound 16, (6aR,9R,10aR)-3-(Adamantan-1-yl)-9-(2-hydroxyethyl)-6,6-dimethyl-6a,7,8,9,10,10a-hexahydro-6H-benzo[c]chromen-1-ol] |  |  |  |  | ~ 4 fold |  | CB1 selectivity over hCB2 [7]: ~ 4 fold
